Assay results: ChEMBL document CHEMBL3885881, “DrugMatrix”

Species: Rattus norvegicus
Assay: DrugMatrix - Regimen: Daily Repeat
Assay type: toxicity, organism-based, Sprague-Dawley
Design: regimen Daily Repeat, gender Male, age 6-8 weeks
Details: in vivo, po, route oral GAVAGE, vehicle 100 % WATER
[1] = 0 mg/kg, 72 h, tissue Blood, dose level Control, time 3 day
[2] = 0 mg/kg, 72 h, tissue Plasma, dose level Control, time 3 day
[3] = 0 mg/kg, 120 h, tissue Blood, dose level Control, time 5 day
[4] = 0 mg/kg, 120 h, tissue Plasma, dose level Control, time 5 day
[5] = 1 mg/kg, 72 h, tissue Blood, dose level Low, time 3 day
[6] = 1 mg/kg, 72 h, tissue Plasma, dose level Low, time 3 day

Sequence: THIMEROSAL
- ABSOLUTE BASOPHIL [1]: 0 CELLS/uL
- ABSOLUTE EOSINOPHIL [1]: 123.17 CELLS/uL
- ABSOLUTE MONOCYTE [1]: 66.17 CELLS/uL
- ABSOLUTE SEGMENTED NEUTROPHIL [1]: 1149.5 CELLS/uL
- BASOPHIL [1]: 0%
- EOSINOPHIL [1]: 0.83%
- ERYTHROCYTE COUNT [1]: 5.26 x10E6/uL
- HEMATOCRIT [1]: 33.07%
- LEUKOCYTE COUNT [1]: 14.02 x10E3/uL
- LYMPHOCYTE [1]: 90.17%
- MEAN CORPUSCULAR HEMOGLOBIN [1]: 25.62 pg
- MEAN CORPUSCULAR HEMOGLOBIN CONCENTRATION [1]: 40.65 G/DL
- MEAN CORPUSCULAR VOLUME [1]: 63 fL
- MONOCYTE [1]: 0.5%
- NEUTROPHIL [1]: 8.5%
- NUCLEATED RED BLOOD CELLS [1]: 0.17 /100WBC
- PLATELET COUNT [1]: 1142.83 x10E3/uL
- ALANINE AMINOTRANSFERASE [2]: 45.17 u/L
- ALKALINE PHOSPHATASE [2]: 340.17 u/L
- ASPARTATE AMINOTRANSFERASE [2]: 77.33 u/L
- BLOOD UREA NITROGEN [2]: 14.67 mg/dL
- CREATINE PHOSPHOKINASE [2]: 263.67 u/L
- CREATININE [2]: 0.15 mg/dL
- LACTATE DEHYDROGENASE [2]: 230 u/L
- PHOSPHORUS [2]: 11.8 mg/dL
- POTASSIUM [2]: 5.91 MEQ/L
- TOTAL BILIRUBIN [2]: 0.22 mg/dL
- TOTAL PROTEIN [2]: 5.7 G/DL
- URIC ACID [2]: 1.35 mg/dL
- ABSOLUTE BASOPHIL [3]: 0 CELLS/uL
- ABSOLUTE EOSINOPHIL [3]: 125 CELLS/uL
- ABSOLUTE LYMPHOCYTE [3]: 13809 CELLS/uL
- ABSOLUTE MONOCYTE [3]: 351 CELLS/uL
- ABSOLUTE SEGMENTED NEUTROPHIL [3]: 1581.67 CELLS/uL
- BASOPHIL [3]: 0%
- EOSINOPHIL [3]: 0.67%
- ERYTHROCYTE COUNT [3]: 5.53 x10E6/uL
- HEMATOCRIT [3]: 34.83%
- LEUKOCYTE COUNT [3]: 15.87 x10E3/uL
- LYMPHOCYTE [3]: 87.5%
- MEAN CORPUSCULAR HEMOGLOBIN [3]: 25.25 pg
- MEAN CORPUSCULAR HEMOGLOBIN CONCENTRATION [3]: 40.08 G/DL
- MEAN CORPUSCULAR VOLUME [3]: 63.05 fL
- MONOCYTE [3]: 2.17%
- NEUTROPHIL [3]: 9.67%
- NUCLEATED RED BLOOD CELLS [3]: 0 /100WBC
- PLATELET COUNT [3]: 1044 x10E3/uL
- ALANINE AMINOTRANSFERASE [4]: 50.67 u/L
- ALKALINE PHOSPHATASE [4]: 395 u/L
- ASPARTATE AMINOTRANSFERASE [4]: 86 u/L
- CARBON DIOXIDE [4]: 29.33 mmol/L
- CHOLESTEROL [4]: 71.33 mg/dL
- CREATINE PHOSPHOKINASE [4]: 323.17 u/L
- CREATININE [4]: 0.18 mg/dL
- LACTATE DEHYDROGENASE [4]: 389.5 u/L
- LIPASE [4]: 9.83 u/L
- PHOSPHORUS [4]: 11.35 mg/dL
- POTASSIUM [4]: 6.39 MEQ/L
- TOTAL BILIRUBIN [4]: 0.18 mg/dL
- TOTAL PROTEIN [4]: 6.1 G/DL
- URIC ACID [4]: 1.52 mg/dL
- ABSOLUTE BASOPHIL [5]: 0 CELLS/uL
- ABSOLUTE EOSINOPHIL [5]: 68 CELLS/uL
- ABSOLUTE LYMPHOCYTE [5]: 13921 CELLS/uL
- ABSOLUTE MONOCYTE [5]: 100.67 CELLS/uL
- ABSOLUTE SEGMENTED NEUTROPHIL [5]: 710.33 CELLS/uL
- BASOPHIL [5]: 0%
- EOSINOPHIL [5]: 0.33%
- ERYTHROCYTE COUNT [5]: 5.23 x10E6/uL
- HEMATOCRIT [5]: 33.4%
- HEMOGLOBIN [5]: 13.6 G/DL
- LEUKOCYTE COUNT [5]: 14.8 x10E3/uL
- LYMPHOCYTE [5]: 94.33%
- MEAN CORPUSCULAR HEMOGLOBIN [5]: 26.03 pg
- MEAN CORPUSCULAR HEMOGLOBIN CONCENTRATION [5]: 40.73 G/DL
- MEAN CORPUSCULAR VOLUME [5]: 63.97 fL
- MONOCYTE [5]: 0.67%
- NEUTROPHIL [5]: 4.67%
- NUCLEATED RED BLOOD CELLS [5]: 0 /100WBC
- PLATELET COUNT [5]: 1138.67 x10E3/uL
- ALANINE AMINOTRANSFERASE [6]: 49 u/L
- ALKALINE PHOSPHATASE [6]: 344.33 u/L
- ASPARTATE AMINOTRANSFERASE [6]: 77 u/L
- BLOOD UREA NITROGEN [6]: 12.33 mg/dL
- CHLORIDE [6]: 100 MEQ/L
- CHOLESTEROL [6]: 82.33 mg/dL
- CREATINE PHOSPHOKINASE [6]: 236.33 u/L
- CREATININE [6]: 0.13 mg/dL
- GLUCOSE [6]: 155 mg/dL
- LACTATE DEHYDROGENASE [6]: 196.33 u/L
- PHOSPHORUS [6]: 11.57 mg/dL
- POTASSIUM [6]: 6.96 MEQ/L
